Test results from patent US9556165B2 (priority 2012, dated 2017).
Values after ≈ are worked out from the molar mass of the structure shown. Read-outs that look alike come from different tables or passages of the source.

What was measured:
Assay type in all cases: cell-based
[1] = test system: E. coli ATCC25922; test: MIC determination, broth microdilution (CLSI); conditions: Escherichia coli, ATCC25922, strain 1
[2] = test system: K. pneumoniae 60; test: MIC determination, broth microdilution (CLSI); conditions: Klebsiella pneumoniae, 60, strain 2
[3] = test system: E. cloacae 34654; test: MIC determination, broth microdilution (CLSI); conditions: Enterobacter cloacae, 34654, strain 3
[4] = test system: C. freundii K21/3034; test: MIC determination, broth microdilution (CLSI); conditions: Citrobacter freundii, K21/3034, strain 4
[5] = test system: M. morganii 126/3048; test: MIC determination, broth microdilution (CLSI); conditions: Morganella morganii, 126/3048, strain 5
[6] = test system: P. aeruginosa PAO1; test: MIC determination, broth microdilution (CLSI); conditions: Pseudomonas aeruginosa, PAO1, strain 6
[7] = test system: P. aeruginosa 2297 (AmpC wt); test: MIC determination, broth microdilution (CLSI); conditions: Pseudomonas aeruginosa, strain 7
[8] = test system: P. aeruginosa 2297-con (AmpC derepressed); test: MIC determination, broth microdilution (CLSI); conditions: Pseudomonas aeruginosa, read-out: strain 8 MIC, strain 8
[9] = test system: A. baumannii ATCC15308; test: MIC determination, broth microdilution (CLSI); conditions: Acinetobacter baumannii, ATCC15308, strain 9
[10] = test system: S. maltophilia ICB7569; test: MIC determination, broth microdilution (CLSI); conditions: Stenotrophomonas maltophilia, ICB7569, strain 10
[11] = test system: S. aureus 133; test: MIC determination, broth microdilution (CLSI)
[12] = test system: H. influenzae ATCC 49247; test: MIC determination, broth microdilution (CLSI); conditions: Haemophilus influenzae, ATCC49247, strain 12; broth microdilution; read-out: MIC strain 12 (H. influenzae ATCC 49247)
[13] = test system: S. pneumoniae 113; test: MIC determination, broth microdilution (CLSI); conditions: Streptococcus pneumoniae, 113, strain 13; broth microdilution; read-out: MIC strain 13 (S. pneumoniae 113)
[14] = test system: B. fragilis 6688; test: MIC determination, broth microdilution (CLSI); conditions: Bacteroides fragilis, 6688, strain 15; broth microdilution; read-out: MIC strain 15 (B. fragilis 6688)
[15] = test system: C. perfringens DSM756; test: microbe, parasite or virus in culture; conditions: Clostridium perfringens, DSM756, read-out: MIC strain 16 (C. perfringens DSM756), strain 16; broth microdilution
[16] = test system: E. coli J62; test: MIC determination, broth microdilution (CLSI); conditions: Escherichia coli, J62, strain 17; broth microdilution; read-out: MIC strain 17 (E. coli J62)
[17] = test system: E. coli J62-TEM-3; test: MIC determination, broth microdilution (CLSI); conditions: Escherichia coli, J62TEM3, read-out: MIC strain 18 (E. coli J62-TEM-3), strain 18; broth microdilution
[18] = test system: Bacteria; test: MIC determination in combination with β-lactamase inhibitors (constant 4 μg/mL)
[19] = Staphylococcus aureus, 133, strain 11, read-out: strain 11 MIC
[20] = Staphylococcus aureus, 133, strain 14, broth microdilution, read-out: MIC strain 14 (S. aureus 133)

SMILES | MIC [1] | MIC [2] | MIC [3] | MIC [4] | MIC [5] | MIC [6] | MIC [7] | MIC [8] | MIC [9] | MIC [10] | MIC [11, 19] | MIC [12] | MIC [13] | MIC [14] | MIC [15] | MIC [16] | MIC [17] | MIC strain 19 (E. coli J62-TEM-3 + 4 μg/mL clavulanic acid) [18] | MIC strain 20 (E. coli J62-TEM-3 + 4 μg/mL sulbactam) [18] | MIC strain 21 (E. coli J62-TEM-3 + 4 μg/mL tazobactam) [18] | also measured
CC1(C)[C@H](NC(=O)/C(=N\OCCOc2ccc(C(=N)N[C@H](CN)CO)cc2)c2csc(N)n2)C(=O)N1OS(=O)(=O)O [Example 85, (2Z)-2-{[2-(4-{N-[(2R)-1-Amino-3-hydroxypropan-2-yl]carbamimidoyl}phenoxy)ethoxy]imino}-2-(2-amino-1,3-thiazol-4-yl)-N-[(3S)-2,2-dimethyl-4-oxo-1-(sulfooxy)azetidin-3-yl]ethanamide] | 0.25 µg/mL (≈ 0.407 µM) | 0.5 µg/mL (≈ 0.813 µM) | 0.5 µg/mL (≈ 0.813 µM) | 0.25 µg/mL (≈ 0.407 µM) | 0.25 µg/mL (≈ 0.407 µM) | 4 µg/mL (≈ 6.51 µM) | 8 µg/mL (≈ 13 µM) | 8 µg/mL (≈ 13 µM) | 2 µg/mL (≈ 3.25 µM) | 32 µg/mL (≈ 52.1 µM) | ≤ 0.063 µg/mL | ≤ 0.063 µg/mL | ≤ 0.063 µg/mL | 4 µg/mL (≈ 6.51 µM) | 4 µg/mL (≈ 6.51 µM) | 0.5 µg/mL (≈ 0.813 µM) | 8 µg/mL (≈ 13 µM) | 0.25 µg/mL | 0.25 µg/mL | 0.5 µg/mL | MIC [11, 20]: 8 µg/mL (≈ 13 µM)
CC1(C)[C@H](NC(=O)/C(=N\OCCOc2ccc(C3=NCC(N)CN3)cc2)c2csc(N)n2)C(=O)N1OS(=O)(=O)O (stereo partly drawn) [Example 86, (2Z)-2-({2-[4-(5-Amino-1,4,5,6-tetrahydropyrimidin-2-yl)phenoxy]ethoxy}imino)-2-(2-amino-1,3-thiazol-4-yl)-N-[(3S)-2,2-dimethyl-4-oxo-1-(sulfooxy)azetidin-3-yl]ethanamide] | 0.25 µg/mL (≈ 0.419 µM) | 0.5 µg/mL (≈ 0.838 µM) | 0.5 µg/mL (≈ 0.838 µM) | 0.25 µg/mL (≈ 0.419 µM) | 0.5 µg/mL (≈ 0.838 µM) | 4 µg/mL (≈ 6.7 µM) | 8 µg/mL (≈ 13.4 µM) | 8 µg/mL (≈ 13.4 µM) | 2 µg/mL (≈ 3.35 µM) | 32 µg/mL (≈ 53.6 µM) | ≤ 0.063 µg/mL | ≤ 0.063 µg/mL | ≤ 0.063 µg/mL | 4 µg/mL (≈ 6.7 µM) | 2 µg/mL (≈ 3.35 µM) | 0.25 µg/mL (≈ 0.419 µM) | 16 µg/mL (≈ 26.8 µM) | 0.25 µg/mL | 0.25 µg/mL | 0.5 µg/mL | MIC [11, 20]: 4 µg/mL (≈ 6.7 µM)
CC1(C)[C@H](NC(=O)/C(=N\O[C@@H](COc2ccc(C(=N)N[C@@H]3CCCNC3)cc2)C(=O)O)c2csc(N)n2)C(=O)N1OS(=O)(=O)O [Example 88, (2S)-2-({[(1Z)-1-(2-Amino-1,3-thiazol-4-yl)-2-{[(3S)-2,2-dimethyl-4-oxo-1-(sulfooxy)azetidin-3-yl]amino}-2-oxoethylidene]amino}oxy)-3-(4-{N-[(3R)-piperidin-3-yl]carbamimidoyl}phenoxy)propanoic acid] | ≤ 0.063 µg/mL | 0.125 µg/mL (≈ 0.187 µM) | ≤ 0.063 µg/mL | ≤ 0.063 µg/mL | ≤ 0.063 µg/mL | 1 µg/mL (≈ 1.5 µM) | 1 µg/mL (≈ 1.5 µM) | 1 µg/mL (≈ 1.5 µM) | 2 µg/mL (≈ 2.99 µM) | 4 µg/mL (≈ 5.98 µM) |  | ≤ 0.063 µg/mL | 0.5 µg/mL (≈ 0.748 µM) | 8 µg/mL (≈ 12 µM) | 0.5 µg/mL (≈ 0.748 µM) | 0.125 µg/mL (≈ 0.187 µM) | 2 µg/mL (≈ 2.99 µM) | ≦0.063 mg/L | ≦0.063 mg/L | ≦0.063 mg/L | MIC [11, 20]: 32 µg/mL (≈ 47.9 µM)
CC1(C)[C@H](NC(=O)/C(=N\OCCOc2ccc(C3=NCC(CN)N3)cc2)c2csc(N)n2)C(=O)N1OS(=O)(=O)O (stereo partly drawn) [Example 91, (2Z)-2-[(2-{4-[5-(Aminomethyl)-4,5-dihydro-1H-imidazol-2-yl]phenoxy}ethoxy)imino]-2-(2-amino-1,3-thiazol-4-yl)-N-[(3S)-2,2-dimethyl-4-oxo-1-(sulfooxy)azetidin-3-yl]ethanamide] | 0.125 µg/mL (≈ 0.21 µM) | 0.125 µg/mL (≈ 0.21 µM) | 0.25 µg/mL (≈ 0.419 µM) | 0.125 µg/mL (≈ 0.21 µM) | 0.25 µg/mL (≈ 0.419 µM) | 2 µg/mL (≈ 3.35 µM) | 4 µg/mL (≈ 6.7 µM) | 2 µg/mL (≈ 3.35 µM) | 1 µg/mL (≈ 1.68 µM) | 16 µg/mL (≈ 26.8 µM) | ≤ 0.063 µg/mL | ≤ 0.063 µg/mL | ≤ 0.063 µg/mL | 4 µg/mL (≈ 6.7 µM) | 2 µg/mL (≈ 3.35 µM) | 0.125 µg/mL (≈ 0.21 µM) | 4 µg/mL (≈ 6.7 µM) | 0.125 µg/mL | 0.125 µg/mL | 0.125 µg/mL | MIC [11, 20]: 2 µg/mL (≈ 3.35 µM)
CC1(C)[C@H](NC(=O)/C(=N\OCCOc2ccc(C(=N)NC3CNNC3)cc2)c2csc(N)n2)C(=O)N1OS(=O)(=O)O [Example 92] | 0.5 µg/mL (≈ 0.817 µM) | 0.5 µg/mL (≈ 0.817 µM) | 1 µg/mL (≈ 1.63 µM) | 0.5 µg/mL (≈ 0.817 µM) | 0.5 µg/mL (≈ 0.817 µM) | 8 µg/mL (≈ 13.1 µM) | 8 µg/mL (≈ 13.1 µM) | 8 µg/mL (≈ 13.1 µM) | 4 µg/mL (≈ 6.54 µM) | 32 µg/mL (≈ 52.3 µM) | ≤ 0.063 µg/mL | 0.125 µg/mL (≈ 0.204 µM) | ≤ 0.063 µg/mL | 8 µg/mL (≈ 13.1 µM) | 2 µg/mL (≈ 3.27 µM) | 1 µg/mL (≈ 1.63 µM) | 32 µg/mL (≈ 52.3 µM) | 0.5 µg/mL | 0.5 µg/mL | 0.5 µg/mL | MIC [11, 20]: 8 µg/mL (≈ 13.1 µM)
CC(C)(N)CNC(=N)c1ccc(OC[C@H](O/N=C(\C(=O)N[C@@H]2C(=O)N(OS(=O)(=O)O)C2(C)C)c2csc(N)n2)C(=O)O)cc1 [Example 94, (2S)-3-{4-[N-(2-Amino-2-methylpropyl)carbamimidoyl]phenoxy}-2-({[(1Z)-1-(2-amino-1,3-thiazol-4-yl)-2-{[(3S)-2,2-dimethyl-4-oxo-1-(sulfooxy)azetidin-3-yl]amino}-2-oxoethylidene]amino}oxy)propanoic acid] | 0.125 µg/mL (≈ 0.19 µM) | 0.125 µg/mL (≈ 0.19 µM) | 0.125 µg/mL (≈ 0.19 µM) | 0.125 µg/mL (≈ 0.19 µM) | 0.125 µg/mL (≈ 0.19 µM) | 2 µg/mL (≈ 3.05 µM) | 2 µg/mL (≈ 3.05 µM) | 2 µg/mL (≈ 3.05 µM) | 2 µg/mL (≈ 3.05 µM) | 4 µg/mL (≈ 6.09 µM) | ≤ 0.063 µg/mL | ≤ 0.063 µg/mL | 0.5 µg/mL (≈ 0.761 µM) | 8 µg/mL (≈ 12.2 µM) | 0.5 µg/mL (≈ 0.761 µM) | 0.25 µg/mL (≈ 0.381 µM) | 8 µg/mL (≈ 12.2 µM) | 0.125 µg/mL | ≦0.063 mg/L | 0.125 µg/mL | MIC [11, 20]: 32 µg/mL (≈ 48.7 µM)
CNCCNC(=N)c1ccc(OC[C@H](O/N=C(\C(=O)N[C@@H]2C(=O)N(OS(=O)(=O)O)C2(C)C)c2csc(N)n2)C(=O)O)cc1 [Example 95, (2S)-2-({[(1Z)-1-(2-Amino-1,3-thiazol-4-yl)-2-{[(3S)-2,2-dimethyl-4-oxo-1-(sulfooxy)azetidin-3-yl]amino}-2-oxoethylidene]amino}oxy)-3-(4-{N-[2-(methylamino)ethyl]carbamimidoyl}phenoxy)propanoic acid] | 0.125 µg/mL (≈ 0.195 µM) | 0.125 µg/mL (≈ 0.195 µM) | 0.125 µg/mL (≈ 0.195 µM) | 0.125 µg/mL (≈ 0.195 µM) | ≤ 0.063 µg/mL | 1 µg/mL (≈ 1.56 µM) | 2 µg/mL (≈ 3.11 µM) | 2 µg/mL (≈ 3.11 µM) | 2 µg/mL (≈ 3.11 µM) | 4 µg/mL (≈ 6.22 µM) | ≤ 0.063 µg/mL | ≤ 0.063 µg/mL | 0.5 µg/mL (≈ 0.778 µM) | 8 µg/mL (≈ 12.4 µM) | 2 µg/mL (≈ 3.11 µM) | 0.125 µg/mL (≈ 0.195 µM) | 4 µg/mL (≈ 6.22 µM) | 0.125 µg/mL | ≦0.063 mg/L | 0.125 µg/mL | 
